{"source": "patent US11311576B2", "about": "“Methods of use for CAR T cells” (Seattle Children's Hospital, priority 2018, dated 2022)", "key": {"MDA-MB-231 tumors": {"tested_on": "MDA-MB-231 tumors", "experiment": "CAR-T therapy with EC17 fixed dose or dose de-escalation in mice bearing MDA-MB-231 tumors", "format": "in vivo", "text": "The effect of EC17 dose de-escalation was investigated on the anti-tumor activity and the toxicity (body weight changes) of CAR-T therapy. Two different anti-fluorescein scFv were used for the CAR constructions (FIG. 1). The first construct of CAR contains the following domains: antiFL(FITC-E2)scFv-IgG4 hinge (CH2 (L235D, N297Q)-CH3)-CD28 TM-4-1BB-CD3z-T2A-EGFRt. The second construct of CAR contains the following domains: antiFL(FITC-4M5.3)scFv-IgG4 hinge (CH2 (L235D, N297Q)-CH3)-CD28 TM-4-1BB-CD3z-T2A-EGFRt. The nucleic acid sequence and amino acid sequence of the CAR of each construct are shown as SEQ ID NOS:1 to 4. Human T cells were isolated, activated and transduced with a lentiviral vector carrying the appropriate CAR gene. CD4+ T cells with the CAR-modification and CD8+ T cells with the CAR-modification were isolated and cultured separately in vitro for about 7 days. CD4+ CAR-T cells and CD8+ CAR-T cells were mixed at a 1:1 ratio before i.v. administration for animal studies.\nThe second construct 4M5.3-CAR (antiFL(FITC-4M5.3) scFv-IgG4 hinge (CH2 (L235D, N297Q)-CH3)-CD28 TM-4-1BB-CD3z-T2A-EGFRt) was also evaluated. Mice bearing MDA-MB-231 tumors (150-250 mm^3) were used for in vivo studies to evaluate 4M5.3-CAR-T cells. […]"}, "HOS-FRα tumor": {"tested_on": "HOS-FRα tumor", "experiment": "CRS toxicity and sodium fluorescein rescue in HOS-FRα tumor-bearing mice", "format": "in vivo", "settings": "intravenous ~95 mg/kg on day 13, plasma 6 hours later, 35 million total CAR-T cells", "experimental": "All animal care and use were performed according to NIH guidelines and in compliance with protocols approved by the Purdue University Animal Use and Care Committee. Female 4 to 5-week-old NOD/SCID gamma (NSG™) mice (stock number: 005557) were purchased from The Jackson Laboratory (Bar Harbor, Me.). Unless specifically indicated, all animals were maintained on a FA-deficient diet (TestDiet, St. Louis, Mo.) upon arrival and throughout the study. To establish subcutaneous xenografts, MDA-MB-231 and HOS-FRα were implanted in the right flank region at 2.5×10^6 and 1×10^6 cells per animal, respectively. For intravenous xenografts, THP1-FRb cells were inoculated at 5×10^6 cells per animal. Subcutaneous tumors were measured 2-3 times per week with a caliper and calculated using the ellipsoidal formula […]. […] All animal doses (CAR-T cells, EC17, sodium fluorescein) were given intravenously.\nDepending on the CAR-T cell dose and how EC17 is administered, tumor-bearing mice receiving FITC-specific CAR-T cells can experience severe CRS and varying degrees of body weight loss. […] On the days immediately following each EC17 dose, animals were scored and rescue agents such as sodium fluorescein, folic acid and leucovorin were used to mitigate CRS toxicity. […]"}}}
{"smiles": "O=C([O-])c1ccccc1-c1c2ccc(=O)cc-2oc2cc([O-])ccc12.[Na+].[Na+]", "note": "[sodium fluorescein]", "values": [{"measurement": "antitumor activity after NaFL rescue", "setting": "MDA-MB-231 tumors; E2-CAR-T 10 and 20 million cells, EC17 500 nmol/kg SIW, NaFL 6 umol/kg", "value": "antitumor activity was maintained"}, {"measurement": "antitumor activity after NaFL rescue", "setting": "MDA-MB-231 tumors; E2-CAR-T 30 million cells with EC17 dose de-escalation", "value": "antitumor activity is maintained"}, {"measurement": "CAR-T cell derived human cytokines after rescue", "setting": "HOS-FRα tumor", "value": "acted very quickly to reduce CAR-T cell derived human cytokines"}]}
